Results reported in ChEMBL document CHEMBL5465560, “Selectivity Literature for EUbOPEN Chemogenomic Library” (2024).

Legend:
[1] = biological target: cAMP-dependent protein kinase catalytic subunit beta (Homo sapiens) (UniProt P22694); experiment: Selectivity interaction (KinomeScan (DiscoverX)) EUB0001049a PRKACB; details: at 1 µM
[2] = biological target: RAC-beta serine/threonine-protein kinase (Homo sapiens) (UniProt P31751); experiment: Selectivity interaction (Upstate Kinase Profiler service (Millipore)) EUB0000056c AKT2; details: at 1 µM
RAC-beta serine/threonine-protein kinase (Homo sapiens), sequence (P31751 whole entry): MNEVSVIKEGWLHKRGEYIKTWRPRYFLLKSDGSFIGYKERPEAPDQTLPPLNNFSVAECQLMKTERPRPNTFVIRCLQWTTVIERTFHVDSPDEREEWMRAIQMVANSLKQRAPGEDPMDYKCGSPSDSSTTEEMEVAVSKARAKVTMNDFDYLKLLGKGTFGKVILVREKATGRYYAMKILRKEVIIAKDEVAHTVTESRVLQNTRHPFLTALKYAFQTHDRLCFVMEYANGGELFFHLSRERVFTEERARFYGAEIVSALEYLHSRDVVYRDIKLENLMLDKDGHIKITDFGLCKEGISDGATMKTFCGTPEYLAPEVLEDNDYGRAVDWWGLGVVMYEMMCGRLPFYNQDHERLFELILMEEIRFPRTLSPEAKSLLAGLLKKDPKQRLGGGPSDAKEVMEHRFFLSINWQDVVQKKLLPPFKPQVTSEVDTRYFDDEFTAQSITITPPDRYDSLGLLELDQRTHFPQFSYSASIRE

[3] = biological target: Tyrosine-protein kinase Fes/Fps (Homo sapiens) (UniProt P07332); experiment: Selectivity interaction (KinaseProfiler screening (Millipore)) EUB0000601a FES; details: at 3 µM
Tyrosine-protein kinase Fes/Fps (Homo sapiens), sequence (P07332 whole entry): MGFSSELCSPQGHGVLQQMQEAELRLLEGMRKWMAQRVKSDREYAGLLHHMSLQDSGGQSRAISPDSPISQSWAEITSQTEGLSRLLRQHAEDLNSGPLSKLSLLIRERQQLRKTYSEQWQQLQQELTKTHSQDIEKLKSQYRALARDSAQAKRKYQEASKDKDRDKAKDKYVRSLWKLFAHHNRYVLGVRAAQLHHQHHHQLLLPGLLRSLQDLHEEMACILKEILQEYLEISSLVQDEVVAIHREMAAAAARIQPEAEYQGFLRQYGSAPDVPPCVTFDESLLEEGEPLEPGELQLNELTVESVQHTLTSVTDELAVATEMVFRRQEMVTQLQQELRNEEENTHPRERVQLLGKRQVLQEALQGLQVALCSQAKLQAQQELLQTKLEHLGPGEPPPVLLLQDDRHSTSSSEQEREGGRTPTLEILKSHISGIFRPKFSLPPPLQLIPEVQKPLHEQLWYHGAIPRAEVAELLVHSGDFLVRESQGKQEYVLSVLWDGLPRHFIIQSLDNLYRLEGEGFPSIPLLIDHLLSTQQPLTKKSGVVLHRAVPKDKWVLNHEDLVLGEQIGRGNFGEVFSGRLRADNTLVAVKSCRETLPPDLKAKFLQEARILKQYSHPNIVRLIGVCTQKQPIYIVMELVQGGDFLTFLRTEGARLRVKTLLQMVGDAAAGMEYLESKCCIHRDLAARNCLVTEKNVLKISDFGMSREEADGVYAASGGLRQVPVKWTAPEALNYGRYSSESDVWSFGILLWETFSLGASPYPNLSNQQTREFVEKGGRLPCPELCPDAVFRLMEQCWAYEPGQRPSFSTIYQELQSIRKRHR

[4] = biological target: Eukaryotic translation initiation factor 2-alpha kinase 1 (Homo sapiens) (UniProt Q9BQI3); experiment: Selectivity interaction (KinomeScan (DiscoverX)) EUB0000607a EIF2AK1; details: at 10 µM
Eukaryotic translation initiation factor 2-alpha kinase 1 (Homo sapiens), sequence (Q9BQI3 whole entry): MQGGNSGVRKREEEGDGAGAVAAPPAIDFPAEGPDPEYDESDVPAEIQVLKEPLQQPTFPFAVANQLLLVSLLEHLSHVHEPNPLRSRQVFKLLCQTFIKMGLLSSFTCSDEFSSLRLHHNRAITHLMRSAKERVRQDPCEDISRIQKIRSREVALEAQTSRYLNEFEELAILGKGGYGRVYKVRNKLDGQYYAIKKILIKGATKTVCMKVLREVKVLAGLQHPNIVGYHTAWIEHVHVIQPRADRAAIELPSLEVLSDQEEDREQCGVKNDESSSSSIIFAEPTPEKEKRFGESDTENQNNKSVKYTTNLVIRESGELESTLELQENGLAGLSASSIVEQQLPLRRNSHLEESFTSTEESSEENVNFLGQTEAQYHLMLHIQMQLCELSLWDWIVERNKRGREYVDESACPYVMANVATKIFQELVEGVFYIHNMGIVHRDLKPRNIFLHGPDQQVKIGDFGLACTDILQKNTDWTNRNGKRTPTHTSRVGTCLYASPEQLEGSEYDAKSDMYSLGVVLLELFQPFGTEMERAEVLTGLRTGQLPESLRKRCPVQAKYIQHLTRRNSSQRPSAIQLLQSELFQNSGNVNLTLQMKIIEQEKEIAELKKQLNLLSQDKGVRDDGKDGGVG

[5] = biological target: Glycogen synthase kinase-3 beta (Homo sapiens, UniProt P49841); experiment: Selectivity interaction (SelectScreen profiling (Invitrogen)) EUB0000607a GSK3B; details: at 2 µM
Glycogen synthase kinase-3 beta, sequence (P49841 whole entry, looked up): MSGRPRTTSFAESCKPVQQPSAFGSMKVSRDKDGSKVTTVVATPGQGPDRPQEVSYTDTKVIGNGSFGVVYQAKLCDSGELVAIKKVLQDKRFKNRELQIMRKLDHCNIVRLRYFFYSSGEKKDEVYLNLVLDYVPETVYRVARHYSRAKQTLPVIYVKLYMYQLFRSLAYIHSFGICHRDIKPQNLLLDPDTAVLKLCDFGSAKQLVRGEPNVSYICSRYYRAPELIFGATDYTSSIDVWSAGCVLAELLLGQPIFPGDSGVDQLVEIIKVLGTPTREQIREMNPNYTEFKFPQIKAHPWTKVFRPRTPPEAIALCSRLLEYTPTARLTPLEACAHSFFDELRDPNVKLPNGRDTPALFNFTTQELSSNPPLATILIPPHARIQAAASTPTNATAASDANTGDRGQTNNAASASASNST

[6] = biological target: T1, Cytoplasmic tyrosine-protein kinase BMX (Homo sapiens) (UniProt P51813); experiment: Selectivity interaction (Kinase panel (Invitrogen)) EUB0000639a BMX; details: at 200 nM
T1 sequence (whole entry): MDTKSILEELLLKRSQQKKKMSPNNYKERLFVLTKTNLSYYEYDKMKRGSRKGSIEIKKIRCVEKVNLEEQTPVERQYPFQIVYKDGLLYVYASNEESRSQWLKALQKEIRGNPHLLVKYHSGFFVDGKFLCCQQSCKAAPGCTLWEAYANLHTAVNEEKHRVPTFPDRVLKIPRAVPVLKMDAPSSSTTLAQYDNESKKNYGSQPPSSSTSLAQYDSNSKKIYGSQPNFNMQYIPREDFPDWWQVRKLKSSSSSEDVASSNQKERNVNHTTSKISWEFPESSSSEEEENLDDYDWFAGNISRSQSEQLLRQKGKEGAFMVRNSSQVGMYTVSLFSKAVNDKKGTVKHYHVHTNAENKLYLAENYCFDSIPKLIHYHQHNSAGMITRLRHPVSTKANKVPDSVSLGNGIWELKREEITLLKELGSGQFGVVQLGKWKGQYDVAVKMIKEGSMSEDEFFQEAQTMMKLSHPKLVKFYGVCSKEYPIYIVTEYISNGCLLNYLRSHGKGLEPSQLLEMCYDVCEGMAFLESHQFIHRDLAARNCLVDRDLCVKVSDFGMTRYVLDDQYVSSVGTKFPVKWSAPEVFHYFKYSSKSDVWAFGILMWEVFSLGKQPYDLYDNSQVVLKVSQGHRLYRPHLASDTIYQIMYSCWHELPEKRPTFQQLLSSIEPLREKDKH

[7] = biological target: T2, Myosin light chain kinase family member 4 (Homo sapiens) (UniProt Q86YV6); experiment: Selectivity interaction (KinomeScan (DiscoverX)) EUB0000655a MYLK4; details: at 10 µM
T2 sequence (whole entry): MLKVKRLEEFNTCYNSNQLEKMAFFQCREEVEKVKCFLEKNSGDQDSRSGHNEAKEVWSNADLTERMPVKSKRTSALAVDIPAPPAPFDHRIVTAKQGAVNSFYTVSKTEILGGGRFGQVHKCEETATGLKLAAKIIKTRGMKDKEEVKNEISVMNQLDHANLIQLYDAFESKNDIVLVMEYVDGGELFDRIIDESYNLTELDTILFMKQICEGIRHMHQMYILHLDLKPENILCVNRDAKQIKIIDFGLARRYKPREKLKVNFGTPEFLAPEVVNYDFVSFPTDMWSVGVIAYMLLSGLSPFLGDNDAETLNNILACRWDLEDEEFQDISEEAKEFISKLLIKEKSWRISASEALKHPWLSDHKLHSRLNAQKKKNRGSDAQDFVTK

[8] = biological target: High affinity nerve growth factor receptor (Homo sapiens, UniProt P04629); details: at 10 µM
High affinity nerve growth factor receptor, sequence (P04629 33-796 limits assumed): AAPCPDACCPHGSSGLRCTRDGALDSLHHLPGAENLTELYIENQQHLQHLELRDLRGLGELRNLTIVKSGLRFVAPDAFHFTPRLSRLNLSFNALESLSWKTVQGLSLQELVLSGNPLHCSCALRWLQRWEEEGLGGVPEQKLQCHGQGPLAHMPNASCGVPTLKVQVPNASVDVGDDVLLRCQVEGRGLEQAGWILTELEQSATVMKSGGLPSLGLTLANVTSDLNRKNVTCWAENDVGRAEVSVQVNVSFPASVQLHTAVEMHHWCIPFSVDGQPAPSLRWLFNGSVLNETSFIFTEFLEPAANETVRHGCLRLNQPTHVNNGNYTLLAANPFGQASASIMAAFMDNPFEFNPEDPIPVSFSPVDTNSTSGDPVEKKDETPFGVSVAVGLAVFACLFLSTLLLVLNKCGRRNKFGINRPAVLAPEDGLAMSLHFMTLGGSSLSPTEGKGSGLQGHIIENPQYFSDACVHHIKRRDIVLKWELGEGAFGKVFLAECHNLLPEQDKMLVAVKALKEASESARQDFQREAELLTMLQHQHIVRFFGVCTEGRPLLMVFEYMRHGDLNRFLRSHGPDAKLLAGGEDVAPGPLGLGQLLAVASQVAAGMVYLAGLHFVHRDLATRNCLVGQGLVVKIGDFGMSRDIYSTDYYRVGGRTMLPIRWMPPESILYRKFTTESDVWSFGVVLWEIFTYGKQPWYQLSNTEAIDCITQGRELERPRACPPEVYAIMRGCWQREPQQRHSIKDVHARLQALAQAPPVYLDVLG

[9] = biological target: LIM domain kinase 2 (Homo sapiens) (UniProt P53671); experiment: Selectivity interaction (KinomeScan (DiscoverX)) EUB0000092b LIMK2; details: at 10 µM
LIM domain kinase 2 (Homo sapiens), sequence (P53671 whole entry, looked up, the tested form may be a part): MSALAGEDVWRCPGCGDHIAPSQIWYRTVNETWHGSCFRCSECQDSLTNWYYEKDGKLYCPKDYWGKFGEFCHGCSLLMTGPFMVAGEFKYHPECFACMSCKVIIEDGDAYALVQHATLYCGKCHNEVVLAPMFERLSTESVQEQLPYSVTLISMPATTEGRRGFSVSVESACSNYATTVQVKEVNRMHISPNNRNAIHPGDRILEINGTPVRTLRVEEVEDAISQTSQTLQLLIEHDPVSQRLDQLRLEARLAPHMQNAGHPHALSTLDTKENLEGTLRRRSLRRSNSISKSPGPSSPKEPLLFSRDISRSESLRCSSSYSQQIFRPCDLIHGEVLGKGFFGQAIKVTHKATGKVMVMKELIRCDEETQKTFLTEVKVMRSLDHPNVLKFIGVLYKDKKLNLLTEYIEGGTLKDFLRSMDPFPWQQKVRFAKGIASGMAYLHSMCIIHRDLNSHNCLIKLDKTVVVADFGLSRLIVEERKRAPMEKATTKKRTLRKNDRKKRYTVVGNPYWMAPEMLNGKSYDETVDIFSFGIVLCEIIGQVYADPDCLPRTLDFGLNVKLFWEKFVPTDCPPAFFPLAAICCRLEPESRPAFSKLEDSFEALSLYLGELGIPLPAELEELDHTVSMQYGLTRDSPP

[10] = biological target: T3, Ephrin type-B receptor 4 (Homo sapiens) (UniProt P54760); experiment: Selectivity interaction (KinomeScan (DiscoverX)) EUB0000092b EPHB4; details: at 10 µM
T3 sequence (whole entry): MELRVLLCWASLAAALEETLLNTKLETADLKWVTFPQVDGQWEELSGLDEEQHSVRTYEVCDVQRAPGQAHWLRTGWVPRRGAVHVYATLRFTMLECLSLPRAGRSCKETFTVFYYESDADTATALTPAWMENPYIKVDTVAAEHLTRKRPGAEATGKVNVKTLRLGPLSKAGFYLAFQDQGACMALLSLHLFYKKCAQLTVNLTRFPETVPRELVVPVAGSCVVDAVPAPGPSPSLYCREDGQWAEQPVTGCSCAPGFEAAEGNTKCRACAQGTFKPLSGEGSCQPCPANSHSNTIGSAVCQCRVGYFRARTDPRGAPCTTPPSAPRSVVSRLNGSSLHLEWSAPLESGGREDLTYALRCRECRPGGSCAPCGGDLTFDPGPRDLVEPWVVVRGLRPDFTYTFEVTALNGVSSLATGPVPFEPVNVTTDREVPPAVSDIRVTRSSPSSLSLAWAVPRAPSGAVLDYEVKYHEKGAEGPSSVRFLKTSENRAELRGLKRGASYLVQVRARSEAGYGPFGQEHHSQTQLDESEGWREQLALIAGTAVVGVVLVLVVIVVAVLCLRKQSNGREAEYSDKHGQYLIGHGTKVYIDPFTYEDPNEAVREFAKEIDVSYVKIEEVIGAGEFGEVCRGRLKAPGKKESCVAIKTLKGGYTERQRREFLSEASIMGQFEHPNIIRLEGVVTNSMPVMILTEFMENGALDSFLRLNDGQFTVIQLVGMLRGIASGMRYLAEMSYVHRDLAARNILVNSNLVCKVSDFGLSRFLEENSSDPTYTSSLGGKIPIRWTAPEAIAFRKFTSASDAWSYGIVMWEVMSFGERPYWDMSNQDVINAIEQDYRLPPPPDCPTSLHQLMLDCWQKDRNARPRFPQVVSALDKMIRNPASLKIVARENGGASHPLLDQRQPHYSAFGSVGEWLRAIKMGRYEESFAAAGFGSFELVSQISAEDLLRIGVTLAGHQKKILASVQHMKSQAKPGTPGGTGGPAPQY

COc1cc(Nc2nc(C)cc(-c3cnn4nc(OC)ccc34)n2)cc(C(F)(F)F)c1
% of control [1]: 100%

Cc1ccc(-c2ccc3c(ccc4sc5c(c43)NC[C@@H](C)NC5=O)n2)cn1
% of inhibition [2]: -9%

CCc1cc(Nc2nccc(-c3c(-c4ccc(OC)c(C(=O)Nc5c(F)cccc5F)c4)nc4ccccn34)n2)c(OC)cc1N1CCC(N2CCN(S(C)(=O)=O)CC2)CC1
% of inhibition [3]: 82%

CNC(=O)Nc1ccc(-c2nc(N3CC4CCC(C3)O4)c3cnn(C4CCC5(CC4)OCCO5)c3n2)cc1
% of control [4]: 100%
% of inhibition [5]: 1%

CC[C@@H]1[C@H](F)C(=O)N[C@@H]1COc1nccc2cc(C(N)=O)c(OC)cc12 [ZIMLOVISERTIB]
% of inhibition [6]: -1.42%

CN(C)CCOc1ccc(-c2nc(-c3ccncc3)c(-c3ccc4c(c3)CC/C4=N\O)[nH]2)cc1
% of control [7]: 98%

CCN(CC)CCCCNc1ncc2cc(-c3cc(OC)cc(OC)c3)c(NC(=O)NC(C)(C)C)nc2n1
% of control [8]: 100%

CCC(=O)N1CCN(c2ccc(-n3c(=O)ccc4cnc5ccc(-c6cnc7ccccc7c6)cc5c43)cc2C(F)(F)F)CC1
% of control [9]: 4.8%
% of control [10]: 85%
